≈ marks a conversion by molar mass, not a printed value.

This is an account of results in patent US20060148730A1, “Method of treating tuberculosis” (priority 2003, published 2006).

The first experiment deals with M. tuberculosis H37Rv. The experiment is described as follows: MIC vs. M. tuberculosis H37Rv, microplate Alamar Blue assay (MABA). It is filed as cell-based.
Conditions: not given
On the technique in general: Resazurin is reduced to fluorescent resorufin, in cell work by metabolically active cells.
Regarding “cethromycin [ABT773, reference compound]”, the “MIC against M. tuberculosis” value came to 3 µM.

Staying with this experiment, now noted: Mycobacterium tuberculosis, H37RV, Table 4; read-out: MIC.
On to `CC[C@H]1OC(=O)[C@H](C)[C@@H](OC2CC(C)(OC)C(OC(=O)c3ccccc3)C(C)O2)[C@H](C)[C@@H](OC2OC(C)CC(N(C)C)C2OC(=O)c2ccccc2)[C@](C)(OC)C[C@@H](C)C(=O)[C@H](C)[C@H]2N(NCCCc3ccnc4ccccc34)C(=O)O[C@]12C` (some centres unmarked) [Compound 1SH53b], for which the MIC is 11 µM (≈ 12.8 µg/mL).

Consider `CC[C@H]1OC(=O)[C@H](C)[C@@H](OC2CC(C)(OC)C(OC(=O)c3ccccc3)C(C)O2)[C@H](C)[C@@H](OC2OC(C)CC(N(C)C)C2O)[C@](C)(OC)C[C@@H](C)C(=O)[C@H](C)[C@H]2N(NCCCc3ccnc4ccccc34)C(=O)O[C@]12C` (some centres unmarked) [Compound 1SH53a], for which the MIC came to 1.69 µM (≈ 1.79 µg/mL).

Still in this experiment, the particulars now being: Table 1a, 11,12-carbamate derivatives; anti-TB activity; read-out: MIC.
Consider `CC[C@H]1OC(=O)[C@H](C)[C@@H](O[C@H]2CC(C)(OC)[C@@H](O)[C@H](C)O2)[C@H](C)[C@@H](O[C@@H]2O[C@H](C)C[C@H](N(C)C)[C@H]2O)[C@](C)(OC)C[C@@H](C)C(=O)[C@H](C)[C@H]2N(CCCCc3ccnc4ccccc34)C(=O)O[C@]12C` (some centres unmarked) [RU66080], for which the MIC was determined as 0.44 µM (≈ 0.421 µg/mL).

With `CC[C@H]1OC(=O)[C@H](C)C(=O)[C@H](C)[C@@H](O[C@@H]2O[C@H](C)C[C@H](N(C)C)[C@H]2O)[C@](C)(OC)C[C@@H](C)C(=O)[C@H](C)[C@H]2N(CCCn3cnc4c3c(=O)n(C)c(=O)n4C)C(=O)O[C@]12C` [RU66740], the MIC is recorded as more than 128 µM.

As to `CCC1OC(=O)C(C)(F)C(=O)C(C)C(OC2OC(C)CC(N(C)C)C2O)C(C)(OC)CC(C)C(=O)C(C)C2N(NCCCc3ccnc4ccccc34)C(=O)OC12C` (centres unmarked) [RU3562], the MIC is recorded as 16 µM (≈ 13 µg/mL).

With “cethromycin [ABT773, reference compound]”, the MIC worked out at 3 µM.

Staying with this experiment, now noted: Table 2a, 11,12-diols; anti-TB activity; read-out: MIC.
Turning to `CC[C@H]1OC(=O)[C@H](C)C(=O)[C@H](C)[C@@H](O[C@@H]2O[C@H](C)C[C@H](N(C)C)[C@H]2O)[C@](C)(OC)C[C@@H](C)C(=NOC2CCCN(C/C=C/c3ccc(-c4ccccc4)cc3)C2)[C@H](C)[C@@H](O)[C@]1(C)O` (some centres unmarked) [RU61804], the MIC is 0.5 µM (≈ 0.439 µg/mL).

Consider `CC[C@H]1OC(=O)[C@H](C)C(=O)[C@H](C)[C@@H](O[C@@H]2O[C@H](C)C[C@H](N(C)C)[C@H]2O)[C@](C)(OC)C[C@@H](C)C(=O)[C@H](C)[C@@H](O)[C@]1(C)O` [RU56006], for which the minimal inhibitory concentration (MIC) was more than 128 µM.

Staying with this experiment, now noted: Table 3; parallel-synthesis carbazate library products, SPE purified; read-out: MIC.
With `CC[C@H]1OC(=O)[C@H](C)[C@@H](O[C@H]2CC(C)(OC)[C@@H](O)[C@H](C)O2)[C@H](C)[C@@H](O[C@@H]2O[C@H](C)C[C@H](N(C)C)[C@H]2O)[C@](C)(OC)C[C@@H](C)C(=O)[C@H](C)[C@H]2N(NCc3c(-c4ccccc4)noc3C)C(=O)O[C@]12C` (some centres unmarked) [C10′], the MIC is 12 µM (≈ 11.5 µg/mL).

Regarding `CC[C@H]1OC(=O)[C@H](C)[C@@H](O[C@H]2CC(C)(OC)[C@@H](O)[C@H](C)O2)[C@H](C)[C@@H](O[C@@H]2O[C@H](C)C[C@H](N(C)C)[C@H]2O)[C@](C)(OC)C[C@@H](C)C(=O)[C@H](C)[C@H]2N(NCc3cccn3-c3ccc(Cl)cc3)C(=O)O[C@]12C` (some centres unmarked) [E12′], the MIC turned out to be 3.4 µM (≈ 3.32 µg/mL).

With `CC[C@H]1OC(=O)[C@H](C)[C@@H](O[C@H]2CC(C)(OC)[C@@H](O)[C@H](C)O2)[C@H](C)[C@@H](O[C@@H]2O[C@H](C)C[C@H](N(C)C)[C@H]2O)[C@](C)(OC)C[C@@H](C)C(=O)[C@H](C)[C@H]2N(NCc3ccc([N+](=O)[O-])o3)C(=O)O[C@]12C` (some centres unmarked) [A8′], the MIC is reported as more than 9 µM.

With `CC[C@H]1OC(=O)[C@H](C)[C@@H](O[C@H]2CC(C)(OC)[C@@H](O)[C@H](C)O2)[C@H](C)[C@@H](O[C@@H]2O[C@H](C)C[C@H](N(C)C)[C@H]2O)[C@](C)(OC)C[C@@H](C)C(=O)[C@H](C)[C@H]2N(NCc3c(C)noc3C)C(=O)O[C@]12C` (some centres unmarked) [C6′], the MIC is listed as more than 17 µM.

Regarding `CC[C@H]1OC(=O)[C@H](C)[C@@H](O[C@H]2CC(C)(OC)[C@@H](O)[C@H](C)O2)[C@H](C)[C@@H](O[C@@H]2O[C@H](C)C[C@H](N(C)C)[C@H]2O)[C@](C)(OC)C[C@@H](C)C(=O)[C@H](C)[C@H]2N(NCc3nccn3C)C(=O)O[C@]12C` (some centres unmarked) [B3′], the MIC is listed as more than 18 µM.

With `CC[C@H]1OC(=O)[C@H](C)[C@@H](O[C@H]2CC(C)(OC)[C@@H](O)[C@H](C)O2)[C@H](C)[C@@H](O[C@@H]2O[C@H](C)C[C@H](N(C)C)[C@H]2O)[C@](C)(OC)C[C@@H](C)C(=O)[C@H](C)[C@H]2N(NCc3cc(Cl)cc(Br)c3O)C(=O)O[C@]12C` (some centres unmarked) [G8′], the MIC worked out at 14 µM (≈ 14.1 µg/mL).

Regarding `CC[C@H]1OC(=O)[C@H](C)[C@@H](O[C@H]2CC(C)(OC)[C@@H](O)[C@H](C)O2)[C@H](C)[C@@H](O[C@@H]2O[C@H](C)C[C@H](N(C)C)[C@H]2O)[C@](C)(OC)C[C@@H](C)C(=O)[C@H](C)[C@H]2N(NCc3c(C(F)(F)F)nn(C)c3Cl)C(=O)O[C@]12C` (some centres unmarked) [D3′], the MIC is given as 20 µM (≈ 19.7 µg/mL).

On to `CC[C@H]1OC(=O)[C@H](C)[C@@H](O[C@H]2CC(C)(OC)[C@@H](O)[C@H](C)O2)[C@H](C)[C@@H](O[C@@H]2O[C@H](C)C[C@H](N(C)C)[C@H]2O)[C@](C)(OC)C[C@@H](C)C(=O)[C@H](C)[C@H]2N(NCCCc3ccccc3)C(=O)O[C@]12C` (some centres unmarked) [A2′], for which the minimum inhibitory concentration (MIC) was found to be 10 µM (≈ 9.06 µg/mL).

For the compound `CC[C@H]1OC(=O)[C@H](C)[C@@H](O[C@H]2CC(C)(OC)[C@@H](O)[C@H](C)O2)[C@H](C)[C@@H](O[C@@H]2O[C@H](C)C[C@H](N(C)C)[C@H]2O)[C@](C)(OC)C[C@@H](C)C(=O)[C@H](C)[C@H]2N(NCC3=Cc4ccccc4OC3)C(=O)O[C@]12C` (some centres unmarked) [G6′], the MIC was 11 µM (≈ 10.3 µg/mL).

For the compound `CC[C@H]1OC(=O)[C@H](C)[C@@H](O[C@H]2CC(C)(OC)[C@@H](O)[C@H](C)O2)[C@H](C)[C@@H](O[C@@H]2O[C@H](C)C[C@H](N(C)C)[C@H]2O)[C@](C)(OC)C[C@@H](C)C(=O)[C@H](C)[C@H]2N(NCc3c[nH]c(=O)[nH]c3=O)C(=O)O[C@]12C` (some centres unmarked) [E8′], the MIC was more than 20 µM.

Still in this experiment, the particulars now being: Table 4; read-out: MIC.
For `CCC1OC(=O)C(C)C(OC2CC(C)(OC)C(O)C(C)O2)C(C)C(OC2OC(C)CC(N(C)C)C2O)C(C)(OC)CC(C)C(=NOC2CCCNC2)C(C)C(O)C1(C)O` (centres unmarked) [ITR0009], the MIC is given as 24 µM (≈ 20.3 µg/mL).

For `CCC1OC(=O)C(C)C(OC2CC(C)(OC)C(O)C(C)O2)C(C)C(OC2OC(C)CC(N(C)C)C2O)C(C)(OC)CC(C)C(=NOCCCCF)C(C)C(O)C1(C)O` (centres unmarked) [Compound 1DP79], the MIC amounted to 3.5 µM (≈ 2.93 µg/mL).

The same experiment, now with this note: Table 5; read-out: MIC.
For the compound `CCC1OC(=O)C(C)C(OC2CC(C)(OC)C(O)C(C)O2)C(C)C(OC2OC(C)CC(N(C)C)C2O)C(C)(OC)CC(C)C(=NOCC(=O)c2ccc(-c3ccccc3)cc2)C(C)C(O)C1(C)O` (centres unmarked) [Compound 1GY53], the MIC is 6.8 µM (≈ 6.51 µg/mL).

With `CCC1OC(=O)C(C)C(OC2CC(C)(OC)C(O)C(C)O2)C(C)C(OC2OC(C)CC(N(C)C)C2O)C(C)(OC)CC(C)C(=NOC(C)(C)CC(C)=O)C(C)C(O)C1(C)O` (centres unmarked) [Compound 1GY27], the minimum inhibitory concentration (MIC) stood at 31 µM (≈ 26.7 µg/mL).

Take `C#CCON=C1C(C)CC(C)(OC)C(OC2OC(C)CC(N(C)C)C2O)C(C)C(OC2CC(C)(OC)C(O)C(C)O2)C(C)C(=O)OC(CC)C(C)(O)C(O)C1C` (centres unmarked) [Compound 1GY17]: the MIC is given as 13 µM (≈ 10.4 µg/mL).

As to `CCC1OC(=O)C(C)C(OC2CC(C)(OC)C(O)C(C)O2)C(C)C(OC2OC(C)CC(N(C)C)C2O)C(C)(O)CC(C)C(=NNCc2ccc(SC)cc2)C(C)C(O)C1(C)O` (centres unmarked) [Compound 1OK137], the MIC stood at 47 µM (≈ 41.6 µg/mL).

The same experiment, now with this note: result in words.
As to `CC[C@H]1OC(=O)[C@H](C)C(=O)[C@H](C)[C@@H](O[C@@H]2O[C@H](C)C[C@H](N(C)C)[C@H]2O)[C@](C)(OC)C[C@@H](C)C(=NOC2CCCN(C/C=C/c3ccc(-c4ccccc4)cc3)C2)[C@H](C)[C@@H](O)[C@]1(C)O` (some centres unmarked) [RU61804], the “anti-TB activity / MIC in words” value was “most potent of the tested 9-oxime compounds”.

By MIC is commonly meant the smallest concentration in the dilution series that meets the test's criterion for growth inhibition.
